According to article PMC8954350, “Non-Canonical Cannabinoid Receptors with Distinct Binding and Signaling Properties in Prostate and Other Cancer Cell Types Mediate Cell Death” (International Journal of Molecular Sciences, 2022):
Where two headings read alike, the source gives them in different places.

Legend:
[1] = biological target: T1, canonical mouse CB1Rs (mouse brain) (Mus musculus, UniProt P47746); format: binding; conditions: 1 μM ligand, mouse brain membranes
T1 construct: membranes prepared from mouse brain containing a high density of mouse CB1 receptors (mCB1); from tissue; host or cells: mouse brain membrane homogenate
T1 sequence (P47746 whole entry): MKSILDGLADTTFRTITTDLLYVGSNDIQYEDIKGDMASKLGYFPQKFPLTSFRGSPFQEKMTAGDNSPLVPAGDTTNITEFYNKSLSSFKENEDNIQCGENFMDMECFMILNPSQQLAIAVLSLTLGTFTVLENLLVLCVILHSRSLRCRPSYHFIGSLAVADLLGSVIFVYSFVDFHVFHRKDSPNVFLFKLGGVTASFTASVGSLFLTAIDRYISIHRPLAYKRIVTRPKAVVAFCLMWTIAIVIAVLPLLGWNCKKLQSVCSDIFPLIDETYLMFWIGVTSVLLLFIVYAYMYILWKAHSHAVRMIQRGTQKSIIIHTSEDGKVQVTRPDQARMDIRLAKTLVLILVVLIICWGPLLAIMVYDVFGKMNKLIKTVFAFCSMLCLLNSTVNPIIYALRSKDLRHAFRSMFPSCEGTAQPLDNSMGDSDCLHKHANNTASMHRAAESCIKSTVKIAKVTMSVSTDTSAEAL
Method: (§1) The assay was conducted as previously detailed. […] All binding reactions were conducted in triplicate, in a final volume of 1 mL, and, following mixing, were incubated for 20 min in a 37 °C water bath to achieve equilibrium. After incubation, reactions were terminated by rapid vacuum filtration through Whatman GF/B glass fiber filters (Brandel; Gaithersburg, MD, USA), followed by three washes of 4 mls of ice-cold filtration buffer (50 mM Tris, pH 7.4, and 0.05% bovine serum albumin). Samples were punched out from filter papers into scintillation vials, to which 4 mls of ScintiverseTM-BDR cocktail scintillation fluid (Fisher Scientific; Hampton, NH, USA) was added. Filters were incubated at room temperature for 24 h in scintillation fluid, vortexed, and radioactivity (measured as DPMs) was quantified via a liquid scintillation spectrophotometer (Tri Carb 2100 TR Liquid Scintillation Analyzer, Packard Instruments, Meriden, CT, USA).

[2] = system: CBRs expressed in C6-glioma cells; assay: [^3H]CP-55,940 competitive binding screen, C6-glioma membranes; set-up: species or system mouse; conditions: 1 μM ligand, 0.2 nM radioligand
Method: as §1

[3] = system: CBRs expressed in PC-12 cells; assay: [^3H]CP-55,940 competitive binding screen, PC-12 membranes; set-up: species or system rat; conditions: 1 μM ligand, 0.2 nM radioligand
Method: as §1

[4] = system: CBRs expressed in HeLa cells; assay: [^3H]CP-55,940 competitive binding screen, HeLa membranes; set-up: species or system human; conditions: 1 μM ligand, 0.2 nM radioligand
Method: as §1

[5] = system: CBRs expressed in PC-3 cells; assay: [^3H]CP-55,940 competitive binding screen, PC-3 membranes; set-up: species or system human; conditions: 1 μM ligand, 0.2 nM radioligand
Method: as §1

[6] = system: CBRs expressed in DU-145 cells; assay: [^3H]CP-55,940 competitive binding screen, DU-145 membranes; set-up: species or system human; conditions: 1 μM ligand, 0.2 nM radioligand
Method: as §1

[7] = system: CBRs expressed in C6-glioma cells; assay: [^3H]WIN-55,212-2 competitive binding screen, C6-glioma membranes; set-up: species or system mouse; conditions: 1 μM ligand, 1 nM radioligand
Method: as §1

[8] = system: CBRs expressed in PC-12 cells; assay: [^3H]WIN-55,212-2 competitive binding screen, PC-12 membranes; set-up: species or system rat; conditions: 1 μM ligand, 1 nM radioligand
Method: as §1

[9] = system: CBRs expressed in HeLa cells; assay: [^3H]WIN-55,212-2 competitive binding screen, HeLa membranes; set-up: species or system human; conditions: 1 μM ligand, 1 nM radioligand
Method: as §1

[10] = system: CBRs expressed in PC-3 membranes; assay: [^3H]WIN-55,212-2 competitive binding screen, PC-3 membranes; set-up: species or system human
Method: as §1
(§2) These experiments were conducted to screen well-characterized cannabinoid ligands with high affinity for canonical CB1 and/or CB2Rs for binding to CBRs expressed in prostate cancer cells lines, as detailed in [33]. […] All binding reactions were conducted in triplicate, in a final volume of 1 mL, and, following mixing, were incubated for 20 min in a 37 °C water bath to achieve equilibrium. After incubation, reactions were terminated by rapid vacuum filtration and processed for radioactivity, as detailed in Section 4.5.1.

[11] = system: CBRs expressed in DU-145 membranes; format: binding, human
Method: as §1, §2

[12] = system: canonical human CB1Rs (CHO-hCB1); set-up: method as in PMID 34592231; conditions: 1 μM ligand, 0.2 nM radioligand, CHO-hCB1 membranes; cited from earlier work
[13] = system: canonical human CB2Rs (CHO-hCB2); set-up: method as in PMID 34592231; conditions: 1 μM ligand, 0.2 nM radioligand, CHO-hCB2 membranes; cited from earlier work
[14] = system: canonical human CB1Rs (CHO-hCB1); set-up: method as in PMID 34592231; conditions: 1 μM ligand, 1 nM radioligand, CHO-hCB1 membranes; cited from earlier work
[15] = system: canonical human CB2Rs (CHO-hCB2); set-up: method as in PMID 34592231; conditions: 1 μM ligand, 1 nM radioligand, CHO-hCB2 membranes; cited from earlier work
[16] = system: DU-145 cells; assay: ATP-dependent cell viability, DU-145 cells; format: cell-based, human; conditions: co-incubation with 10 μM ligand, 24 h
Method: Adenosine 5′-triphosphate (ATP) levels were quantified as a measure of DU-145 cell viability in response to cannabinoid treatement using an ATP-luciferase-based bioluminescence assay kit (CellTiter-Glo®, Sigma, MO, USA) and BioTek microplate reader (Winooski, VT, USA). DU-145 cells were seeded at a density of 8 × 10^3 cells/well in a 96-well plate and incubated for 24 h at 37 °C with 5% CO2. The next day, cells were treated with either vehicle or experimental drugs (10 or 50 μM) and incubated for another 24 h at 37 °C with 5% CO2. ATP levels were assessed following incubation by interpolation from an ATP standard curve according to the manufacturer’s protocol, as described previously.

[17] = system: DU-145 cells; assay: Mitochondrial membrane potential (JC-1 staining), DU-145 cells; format: cell-based, human; conditions: 24 h; for MMP on co-incubation with GW-405833 (10 μM): 10 μM ligand co-incubated; for mitochondrial membrane potential (MMP) depolarization: JC-1
[18] = system: CBRs expressed in PC-3 membranes; assay: [^35S]GTPγS binding, PC-3 membranes; format: biochemical, human; conditions: 10 μM
Method: [^35S]GTPγS binding experiments were conducted to examine G protein modulation by cannabinoids in prostate cancer cell lines DU-145 and PC-3, as detailed previously. Briefly, CHO-hCB2 (50 μg), PC3 (100 μg), or DU-145 (100 μg) membrane homogenates were incubated with a single receptor-saturating concentration (10^−5 M) of cannabinoid ligands to be examined and 0.1 nM [^35S]GTPγS in incubation buffer (20 mM HEPES buffer, pH 7.4, 10 μM GDP, 100 mM NaCl, 0.1% bovine serum albumin, and 10 mM MgCl2). Non-specific binding was defined as radioactivity remaining in the presence of 10 μM of non-radioactive GTPγS and subtracted from total binding to determine specific [^35S]GTPγS binding. All binding reactions were conducted in triplicate, in a final volume of 1 mL, and, following mixing, were incubated for 30 min at 30 °C. After incubation, reactions were terminated by rapid vacuum filtration through Whatman GF/B glass fiber filters (Brandel; Gaithersburg, MD, USA), followed by three washes of 4 mls of ice-cold filtration buffer (50 mM Tris, pH 7.4, and 0.05% bovine serum albumin). Samples were punched out from filter papers into scintillation vials, to which 4 mls of ScintiverseTM-BDR cocktail scintillation fluid (Fisher Scientific; Hampton, NH, USA) was added. Filters were incubated at room temperature for 24 h in scintillation fluid, vortexed, and radioactivity (measured as DPMs) was determined via a liquid scintillation spectrophotometer (Tri Carb 2100 TR Liquid Scintillation Analyzer, Packard Instruments, Meriden, CT, USA).

[19] = system: CBRs expressed in DU-145 membranes; format: biochemical, human; conditions: 10 μM
Method: (§3) Non-specific binding was defined as radioactivity remaining in the presence of 10 μM of non-radioactive GTPγS and subtracted from total binding to determine specific [^35S]GTPγS binding. All binding reactions were conducted in triplicate, in a final volume of 1 mL, and, following mixing, were incubated for 30 min at 30 °C. After incubation, reactions were terminated by rapid vacuum filtration through Whatman GF/B glass fiber filters (Brandel; Gaithersburg, MD, USA), followed by three washes of 4 mls of ice-cold filtration buffer (50 mM Tris, pH 7.4, and 0.05% bovine serum albumin). Samples were punched out from filter papers into scintillation vials, to which 4 mls of ScintiverseTM-BDR cocktail scintillation fluid (Fisher Scientific; Hampton, NH, USA) was added. Filters were incubated at room temperature for 24 h in scintillation fluid, vortexed, and radioactivity (measured as DPMs) was determined via a liquid scintillation spectrophotometer (Tri Carb 2100 TR Liquid Scintillation Analyzer, Packard Instruments, Meriden, CT, USA).

[20] = system: DU-145 cells; assay: LDH cytotoxicity, DU-145 cells; format: cell-based, human; conditions: 24 h
Method: DU-145 cells were seeded at a density of 130 × 10^3 cells/well in 6-well plates and maintained in an incubator at 37 °C with 5% CO2 for 24 h. […] Treated cells were incubated for an additional 24 h, followed by quantification of LDH release. LDH released from damaged or dying cells oxidizes lactate to produce NADH which then reacts with a water-soluble tetrazolium salt (WST) reagent to produce a yellow-colored product. The intensity of the yellow-colored product was detected with an OD reading at 450 nm (quantified by a BioTek microplate reader interfaced with SoftMax Pro 5.4.5 software; Winooski, VT, USA) and was directly proportional to the amount of LDH released. Percent cytotoxicity was calculated according to the manufacturer’s protocol as the following: % Cytotoxicity=OD450 Supernatant/Supernatant+Lysate

[21] = biological target: T2, canonical CBRs stably expressed in CHO-hCB2 (Homo sapiens, UniProt P34972); assay: [^35S]GTPγS binding, CHO-hCB2 homogenates; format: biochemical; conditions: 10 μM
T2 construct: expressed in transfected cells
T2 sequence (P34972 whole entry): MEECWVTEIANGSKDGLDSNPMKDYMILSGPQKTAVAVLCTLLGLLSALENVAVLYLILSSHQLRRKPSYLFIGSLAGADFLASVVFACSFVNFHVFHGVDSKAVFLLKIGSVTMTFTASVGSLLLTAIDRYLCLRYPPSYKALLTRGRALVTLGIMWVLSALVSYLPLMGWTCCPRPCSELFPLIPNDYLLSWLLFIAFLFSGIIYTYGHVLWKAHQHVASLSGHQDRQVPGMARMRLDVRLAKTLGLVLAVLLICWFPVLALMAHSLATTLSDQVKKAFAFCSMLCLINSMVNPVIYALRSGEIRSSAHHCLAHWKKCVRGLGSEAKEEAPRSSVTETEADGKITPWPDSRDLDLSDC
Method: as §3

[22] = biological target: T2, canonical CBRs stably expressed in CHO-hCB2; assay: Adenylyl cyclase modulation in whole CHO-hCB2 cells; format: cell-based; conditions: 10 μM
Method: Growth media contained FetalPlex (10%) and 1% pennicillin/streptomycin. Cells were cultured overnight in a humidified incubator maintained at 37 °C with 5% CO2. For some experiments, a subset of wells were treated overnight with pertussis toxin (2 μL/mL) to abolish Gi/Go protein-mediated signaling. […] After [^3H]adenine incubation, media was replaced with 0.5 mL of a Krebs–Ringer–HEPES solution (10 mM HEPES, 110 mM NaCl, 25 mM Glucose, 55 mM Sucrose, 5 mM KCl, 1 mM MgCl2, and 1.8 mM CaCl2 at pH 7.4) containing 0.5 mM IBMX, 10 μM forskolin and a receptor-saturating concentration (10^−5 M) of cannabinoid ligands to be examined. Plates were then floated in a 37 °C water bath for 15 min, followed by termination of reactions by addition of 50 μL of 2.2 N HCl to each well. Then, [^3H]cAMP was isolated by alumina column chromatography and collection in a 4 mL elution volume. Finally, 10 mL of Scintiverse^TM BD Cocktail scintillation fluid (Fisher Scientific; Hampton, NH, USA) was added to eluates and radioactivity (quantified as DPMs) was quantified via a liquid scintillation spectrophotometer (Tri Carb 2100 TR Liquid Scintillation Analyzer, Packard Instruments, Meriden, CT, USA).

[23] = 1 μM ligand, 1 nM radioligand, PC-3 membranes

CCCCCCC(C)(C)c1ccc([C@@H]2C[C@H](O)CC[C@H]2CCCO)c(O)c1 [CP-55,940]
displacement of [^3H]CP-55,940 ([1]; 0.2 nM radioligand): produced near or complete displacement | displacement of [^3H]WIN-55,212-2 (Figure 1B) ([1]; 1 nM radioligand): produced near or complete displacement | displacement of [^3H]CP-55,940 [2]: neither the non-selective CBR ligand CP-55,940 nor WIN-55,212-2 produced significant displacement | displacement of [^3H]CP-55,940 [3]: neither the non-selective CBR ligand CP-55,940 nor WIN-55,212-2 produced significant displacement | displacement of [^3H]CP-55,940 [4]: neither the non-selective CBR ligand CP-55,940 nor WIN-55,212-2 produced significant displacement | displacement of [^3H]CP-55,940 [5]: neither the non-selective CBR ligand CP-55,940 nor WIN-55,212-2 produced significant displacement | displacement of [^3H]CP-55,940 [6]: neither the non-selective CBR ligand CP-55,940 nor WIN-55,212-2 produced significant displacement | displacement of [^3H]WIN-55,212-2 (Figure 1B) [7]: only WIN-55,212-2, and not CP-55,940, significantly displaced | displacement of [^3H]WIN-55,212-2 (Figure 1B) [8]: only WIN-55,212-2, and not CP-55,940, significantly displaced | displacement of [^3H]WIN-55,212-2 (Figure 1B) [9]: only WIN-55,212-2, and not CP-55,940, significantly displaced | displacement of [^3H]WIN-55,212-2 [10]: only WIN-55,212-2, and not CP-55,940, significantly displaced | displacement of [^3H]WIN-55,212-2 [11]: only WIN-55,212-2, and not CP-55,940, significantly displaced | displacement of [^3H]CP-55,940 [12]: produced near or complete displacement | displacement of [^3H]CP-55,940 [13]: produced near or complete displacement | displacement of [^3H]WIN-55,212-2 (Figure 1B) [14]: produced near or complete displacement | displacement of [^3H]WIN-55,212-2 (Figure 1B) [15]: produced near or complete displacement

Cc1c(C(=O)NN2CCCCC2)nn(-c2ccc(Cl)cc2Cl)c1-c1ccc(I)cc1 [AM-251]
attenuation of GW-405833 (50 μM)-induced reduction in ATP concentrations [16]: significantly attenuated reductions in ATP concentrations produced by GW-405833 | MMP on co-incubation with GW-405833 (10 μM) [17]: MMP was not significantly reduced from vehicle-treated levels

COc1ccc2c(c1)CCC(c1ccccc1)=C2c1ccc(OCCN2CCCC2)cc1 [nafoxidine]
displacement of [^3H]WIN-55,212-2 [10, 23]: produced significant (but less) displacement | displacement of [^3H]WIN-55,212-2 [11]: produced significant (but less) displacement | modulation of [^35S]GTPγS binding [18]: had no effect on G protein activity | modulation of [^35S]GTPγS binding [19]: had no effect on G protein activity

CC(=O)O[C@@]12CO[C@@H]1C[C@H](O)[C@@]1(C)C(=O)[C@H](O)C3=C(C)[C@@H](OC(=O)[C@H](O)[C@@H](NC(=O)OC(C)(C)C)c4ccccc4)C[C@@](O)([C@@H](OC(=O)c4ccccc4)[C@H]21)C3(C)C [docetaxel]
increase in LDH release ([20]; 500 nM): 16.8 ± 3.4% | mitochondrial membrane potential (MMP) depolarization ([17]; 500 nM): induced significant mitochondrial membrane depolarization

COc1ccc(C(=O)c2c(C)n(CCN3CCOCC3)c3cc(I)ccc23)cc1 [AM-630]
displacement of [^3H]WIN-55,212-2 [10, 23]: failed to displace | displacement of [^3H]WIN-55,212-2 [11]: failed to displace | decrease in basal G protein activity ([^35S]GTPγS binding) [21]: 26.15 ± 5.15% | enhancement of forskolin-stimulated intracellular cAMP levels [22]: 117 ± 27.1% | LDH release ([20]; 10 μM): No significant effects | increase in LDH release ([20]; 50 μM): neither low (10 μM) nor high (50 μM) concentrations of WIN-55,212-2, AM-251 or AM-630 altered LDH release | attenuation of GW-405833 (50 μM)-induced LDH release ([20]; co-incubation with 10 μM ligand): significantly attenuated | attenuation of GW-405833 (50 μM)-induced reduction in ATP concentrations [16]: significantly attenuated | MMP on co-incubation with GW-405833 (10 μM) [17]: MMP was not significantly reduced from vehicle-treated levels | mitochondrial membrane potential (MMP) depolarization ([17]; 10 μM): had no effect on MMP | mitochondrial membrane potential (MMP) depolarization ([17]; 50 μM): had no effect on MMP
